# Experimental data published in ChEMBL document CHEMBL5154873, “Selective degradation of PARP2 by PROTACs via recruiting DCAF16 for triple-negative breast cancer” (Eur J Med Chem, 2022).
# Active and inactive are the calls of the source. No cut-off for these calls is given here.
# Assays:
# MDA-MB-436 [1] = assay: Induction of cell cycle arrest in human (BRAC1-/-) MDA-MB-436 cells assessed as accumulation at G2/M phase measured after 48 hrs by flow cytometry analysis; type: functional, cell-based; details: dose 0.312-2.5 µM, DDE = dose-dependent effect
# MDA-MB-231 [2] = assay: Induction of cell cycle arrest in human MDA-MB-231 cells assessed as accumulation at G2/M phase measured after 24 hrs by flow cytometry analysis; type: functional, cell-based; details: dose 0.156-1.25 µM, DDE = dose-dependent effect
# MDA-MB-231 [3] = assay: In vivo antitumor activity against human MDA-MB-231 cells xenografted BALB/c mouse assessed as tumor growth inhibition at 100 mg/kg, IG measured after 21 days; type: functional; details: MDA-MB-231, po, 504 h, time 21 day, read-out: TGI
# MDA-MB-436 [4] = assay: Antiproliferative activity against human BRCA1 -/- MDA-MB-436 cells assessed as reduction in cell viability incubated for 5 to 10 days by MTT assay; type: functional, cell-based
# CAPAN-1 = assay: Antiproliferative activity against human BRCA2 -/- CAPAN-1 cells assessed as reduction in cell viability incubated for 5 to 10 days by MTT assay; type: functional, cell-based
# MDA-MB-468 [5] = assay: Antiproliferative activity against human PTEN -/- MDA-MB-468 cells assessed as reduction in cell viability incubated for 5 to 10 days by MTT assay; type: functional, cell-based
# MDA-MB-231 [6] = assay: Antiproliferative activity against wild type human MDA-MB-231 cells assessed as reduction in cell viability incubated for 5 to 10 days by MTT assay; type: functional, cell-based
# [7] = molecular target: T1, DDB1- and CUL4-associated factor 16/Poly [ADP-ribose] polymerase 2 (Homo sapiens, UniProt Q9UGN5+Q9NXF7); assay: Protac activity at DCAF16 E3 ligase/PARP2 in human MDA-MB-231 cells assessed as induction of PARP2 degradation at 1 uM measured after 24 hrs by Western blot analysis; type: cell-based
# Target sequence in this assay (Q9NXF7 whole entry, looked up): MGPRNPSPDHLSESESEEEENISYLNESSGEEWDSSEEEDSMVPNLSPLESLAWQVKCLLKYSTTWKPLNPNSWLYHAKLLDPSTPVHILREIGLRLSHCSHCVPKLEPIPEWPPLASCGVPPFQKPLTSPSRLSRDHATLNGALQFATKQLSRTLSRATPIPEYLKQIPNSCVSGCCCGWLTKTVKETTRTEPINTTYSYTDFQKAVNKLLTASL
# Target sequence in this assay (Q9UGN5 whole entry, looked up): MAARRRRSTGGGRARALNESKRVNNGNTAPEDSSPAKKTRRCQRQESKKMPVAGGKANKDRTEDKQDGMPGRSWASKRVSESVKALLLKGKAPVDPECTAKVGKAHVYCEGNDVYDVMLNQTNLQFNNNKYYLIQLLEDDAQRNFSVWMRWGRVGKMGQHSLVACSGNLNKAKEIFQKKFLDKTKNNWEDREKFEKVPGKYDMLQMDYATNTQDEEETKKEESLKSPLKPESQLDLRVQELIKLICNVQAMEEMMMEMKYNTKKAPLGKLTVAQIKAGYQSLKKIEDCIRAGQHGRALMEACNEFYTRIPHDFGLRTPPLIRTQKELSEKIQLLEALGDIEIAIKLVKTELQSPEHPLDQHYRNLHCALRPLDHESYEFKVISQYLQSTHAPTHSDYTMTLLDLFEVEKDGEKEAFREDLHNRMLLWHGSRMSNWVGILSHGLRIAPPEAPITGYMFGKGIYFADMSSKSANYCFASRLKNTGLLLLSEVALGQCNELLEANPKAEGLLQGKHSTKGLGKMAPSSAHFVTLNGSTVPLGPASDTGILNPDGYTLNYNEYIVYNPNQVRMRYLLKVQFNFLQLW
# [8] = molecular target: T1, DDB1- and CUL4-associated factor 16/Poly [ADP-ribose] polymerase 2; assay: Protac activity at DCAF16 E3 ligase/PARP2 in human MDA-MB-231 cells assessed as induction of PARP2 degradation measured after 24 hrs by Western blot analysis; type: cell-based
# Target sequence in this assay (Q9UGN5 whole entry): as the sequence (Q9UGN5 whole entry, looked up) above
# Target sequence in this assay (Q9NXF7 whole entry): as the sequence (Q9NXF7 whole entry, looked up) above
# [9] = molecular target: T1, DDB1- and CUL4-associated factor 16/Poly [ADP-ribose] polymerase 2; assay: Protac activity at DCAF16 E3 ligase/PARP2 in human MDA-MB-231 cells assessed as maximum degradation of PARP2 measured after 24 hrs by Western blot analysis relative to control; type: cell-based
# Target sequence in this assay (Q9NXF7 whole entry, looked up): as above
# Target sequence in this assay (Q9UGN5 whole entry, looked up): as the sequence (Q9UGN5 whole entry, looked up) above
# [10] = molecular target: T1, DDB1- and CUL4-associated factor 16/Poly [ADP-ribose] polymerase 2; assay: Protac activity at DCAF16 E3 ligase/PARP2 in human MDA-MB-231 cells assessed as induction of PARP2 degradation at 0.5 uM measured after 8 hrs by Western blot analysis; type: cell-based
# Target sequence in this assay (Q9NXF7 whole entry, looked up): as the sequence (Q9NXF7 whole entry, looked up) above
# Target sequence in this assay (Q9UGN5 whole entry, looked up): as the sequence (Q9UGN5 whole entry, looked up) above
# [11] = molecular target: T1, DDB1- and CUL4-associated factor 16/Poly [ADP-ribose] polymerase 2; assay: Protac activity at DCAF16 E3 ligase/PARP2 in human MDA-MB-231 cells assessed as induction of PARP2 degradation at 0.5 uM preincubated for 2 hrs followed by compound washout measured after 48 hrs by Western blot analysis; type: cell-based
# Target sequence in this assay (Q9NXF7 whole entry, looked up): as the sequence (Q9NXF7 whole entry, looked up) above
# Target sequence in this assay (Q9UGN5 whole entry, looked up): as the sequence (Q9UGN5 whole entry, looked up) above
# [12] = molecular target: Poly [ADP-ribose] polymerase 1 (Homo sapiens, UniProt P09874); assay: Inhibition of PARP1 (unknown origin)
# Sequence of Poly [ADP-ribose] polymerase 1 (P09874 whole entry): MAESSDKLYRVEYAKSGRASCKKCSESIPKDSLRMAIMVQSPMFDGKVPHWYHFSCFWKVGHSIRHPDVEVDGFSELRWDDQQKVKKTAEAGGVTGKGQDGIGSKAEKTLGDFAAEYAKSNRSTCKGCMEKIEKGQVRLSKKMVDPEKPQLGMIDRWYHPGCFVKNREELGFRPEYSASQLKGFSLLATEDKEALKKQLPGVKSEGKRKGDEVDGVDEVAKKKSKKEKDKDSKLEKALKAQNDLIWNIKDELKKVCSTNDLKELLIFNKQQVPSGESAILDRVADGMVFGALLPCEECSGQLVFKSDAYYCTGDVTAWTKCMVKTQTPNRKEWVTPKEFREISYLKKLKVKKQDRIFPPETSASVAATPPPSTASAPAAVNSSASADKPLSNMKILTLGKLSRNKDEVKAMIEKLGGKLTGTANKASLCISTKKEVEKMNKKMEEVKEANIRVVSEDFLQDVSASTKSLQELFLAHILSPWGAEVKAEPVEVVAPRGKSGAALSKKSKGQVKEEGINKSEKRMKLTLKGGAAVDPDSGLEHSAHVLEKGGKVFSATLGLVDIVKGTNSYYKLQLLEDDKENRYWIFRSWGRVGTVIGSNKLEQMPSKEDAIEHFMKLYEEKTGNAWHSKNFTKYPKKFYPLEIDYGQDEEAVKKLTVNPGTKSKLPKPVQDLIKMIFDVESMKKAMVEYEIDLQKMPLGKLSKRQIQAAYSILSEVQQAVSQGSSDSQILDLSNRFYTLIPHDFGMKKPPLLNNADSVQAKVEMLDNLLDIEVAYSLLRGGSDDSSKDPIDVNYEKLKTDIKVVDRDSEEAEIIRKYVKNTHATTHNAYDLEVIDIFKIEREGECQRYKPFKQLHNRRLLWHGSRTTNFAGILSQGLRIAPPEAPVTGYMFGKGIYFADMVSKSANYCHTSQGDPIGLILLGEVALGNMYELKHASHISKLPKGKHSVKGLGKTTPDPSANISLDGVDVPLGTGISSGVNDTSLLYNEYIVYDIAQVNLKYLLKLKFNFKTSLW
# [13] = molecular target: Poly [ADP-ribose] polymerase 2 (Homo sapiens, UniProt Q9UGN5); assay: Inhibition of PARP2 (unknown origin)
# Sequence of Poly [ADP-ribose] polymerase 2 (Q9UGN5 whole entry): as the sequence (Q9UGN5 whole entry, looked up) above
# HeLa = assay: Antiproliferative activity against human HeLa cells over expressing DCAF16 assessed as reduction in cell viability incubated for 5 to 10 days by MTT assay; type: functional, cell-based; details: time 5-10 day
# HepG2 = assay: Antiproliferative activity against human HepG2 cells over expressing DCAF16 assessed as reduction in cell viability incubated for 5 to 10 days by MTT assay; type: functional, cell-based; details: time 5-10 day
# SK-OV-3 = assay: Antiproliferative activity against human SK-OV-3 cells over expressing DCAF16 assessed as reduction in cell viability incubated for 5 to 10 days by MTT assay; type: functional, cell-based; details: time 5-10 day
# NCI-H2228 = assay: Antiproliferative activity against human H2228 cells over expressing DCAF16 assessed as reduction in cell viability incubated for 5 to 10 days by MTT assay; type: functional, cell-based; details: time 5-10 day
# NCI-H3122 = assay: Antiproliferative activity against human H3122 cells over expressing DCAF16 assessed as reduction in cell viability incubated for 5 to 10 days by MTT assay; type: functional, cell-based; details: time 5-10 day
# SW-620 = assay: Antiproliferative activity against human SW-620 cells over expressing DCAF16 assessed as reduction in cell viability incubated for 5 to 10 days by MTT assay; type: functional, cell-based; details: time 5-10 day
# MV4-11 = assay: Antiproliferative activity against human MV4-11 cells over expressing DCAF16 assessed as reduction in cell viability incubated for 5 to 10 days by MTT assay; type: functional, cell-based; details: time 5-10 day
# [14] = molecular target: T1, DDB1- and CUL4-associated factor 16/Poly [ADP-ribose] polymerase 2; assay: Protac activity at DCAF16 E3 ligase/PARP2 in human MDA-MB-231 cells assessed as induction of PARP2 degradation in nucleus at 0.5 uM measured after 24 hrs by DAPI staining based immunofluorescence microscopy; type: cell-based
# Target sequence in this assay (Q9NXF7 whole entry, looked up): as the sequence (Q9NXF7 whole entry, looked up) above
# Target sequence in this assay (Q9UGN5 whole entry, looked up): as the sequence (Q9UGN5 whole entry, looked up) above
# MDA-MB-231 [15] = assay: Inhibition of colony formation in human MDA-MB-231 cells measured after 14 days by crystal violet staining based analysis; type: functional, cell-based; details: dose 0.312-5 µM, time 14.0 day, DDE = dose-dependent effect
# L02 = assay: Cytotoxicity against human L02 cells; type: toxicity, cell-based
# MDA-MB-231 [16] = assay: Induction of apoptosis in human wild type MDA-MB-231 cells at 1.25 uM measured after 48 hrs by Annexin V-FITC/PI staining based flow cytometry method; type: functional
# MDA-MB-231 [17] = assay: In vivo antitumor activity against human MDA-MB-231 cells xenografted BALB/c mouse assessed as tumor growth inhibition at 12.5 mg/kg, ip measured after 21 days; type: functional; details: MDA-MB-231, 504 h, time 21 day, read-out: TGI
# MDA-MB-231 [18] = assay: In vivo antitumor activity against human MDA-MB-231 cells xenografted BALB/c mouse assessed as tumor growth inhibition at 25 mg/kg, ip measured after 21 days; type: functional; details: MDA-MB-231, 504 h, time 21 day, read-out: TGI
# [19] = Toxicity in BALB/c mouse xenografted with MDA-MB-231 cells assessed as morbidity at 100 mg/kg, IG measured after 21 days; type: organism-based; details: in vivo, po, 504 h, time 21 day
# [20] = Toxicity in BALB/c mouse xenografted with MDA-MB-231 cells assessed as morbidity at 12.5 to 25 mg/kg, ip measured after 21 days; type: organism-based; details: in vivo, 504 h, dose 12.5-25 mg/kg, time 21 day
# [21] = Toxicity in BALB/c mouse xenografted with MDA-MB-231 cells assessed as mortality at 100 mg/kg, IG measured after 21 days; type: organism-based; details: in vivo, po, 504 h, time 21 day
# [22] = Toxicity in BALB/c mouse xenografted with MDA-MB-231 cells assessed as mortality at 12.5 to 25 mg/kg, ip measured after 21 days; type: organism-based; details: in vivo, 504 h, dose 12.5-25 mg/kg, time 21 day
# [23] = Toxicity in BALB/c mouse xenografted with MDA-MB-231 cells assessed as change in body weight at 100 mg/kg, IG measured after 21 days; type: organism-based; details: in vivo, po, 504 h, time 21 day
# [24] = Toxicity in BALB/c mouse xenografted with MDA-MB-231 cells assessed as change in body weight at 12.5 to 25 mg/kg, ip measured after 21 days; type: organism-based; details: in vivo, 504 h, dose 12.5-25 mg/kg, time 21 day
# MDA-MB-231 [25] = assay: Antitumor activity against human MDA-MB-231 cells xenografted BALB/c mouse assessed as reduction in tumor weight at 25 mg/kg, ip measured after 21 days; type: functional, organism-based; details: time 21.0 day
# [26] = Toxicity in BALB/c mouse xenografted with MDA-MB-231 cells assessed as pathological changes in heart at 25 mg/kg, ip measured after 21 days by hematoxylin and eosin staining based assay; type: organism-based; details: in vivo, 504 h, time 21 day
# [27] = Toxicity in BALB/c mouse xenografted with MDA-MB-231 cells assessed as pathological changes in liver at 25 mg/kg, ip measured after 21 days by hematoxylin and eosin staining based assay; type: organism-based; details: in vivo, 504 h, time 21 day
# [28] = Toxicity in BALB/c mouse xenografted with MDA-MB-231 cells assessed as pathological changes in spleen at 25 mg/kg, ip measured after 21 days by hematoxylin and eosin staining based assay; type: organism-based; details: in vivo, 504 h, time 21 day
# [29] = Toxicity in BALB/c mouse xenografted with MDA-MB-231 cells assessed as pathological changes in lung at 25 mg/kg, ip measured after 21 days by hematoxylin and eosin staining based assay; type: organism-based; details: in vivo, 504 h, time 21 day
# [30] = Toxicity in BALB/c mouse xenografted with MDA-MB-231 cells assessed as pathological changes in kidney at 25 mg/kg, ip measured after 21 days by hematoxylin and eosin staining based assay; type: organism-based; details: in vivo, 504 h, time 21 day
# MDA-MB-468 [31] = assay: Potency index, ratio of IC50 of Olaparib to IC50 of test compound antiproliferative activity against human PTEN -/- MDA-MB-468 cells assessed as reduction in cell viability incubated for 5 to 10 days by MTT assay; type: functional; details: time 5-10 day
# MDA-MB-231 [32] = assay: Potency index, ratio of IC50 of Olaparib to IC50 of test compound antiproliferative activity against wild type human MDA-MB-231 cells assessed as reduction in cell viability incubated for 5 to 10 days by MTT assay; type: functional; details: time 5-10 day
structure (smiles),measurement,setting,value
O=C(c1cc(Cc2n[nH]c(=O)c3ccccc23)ccc1F)N1CCN(C(=O)C2CC2)CC1 [OLAPARIB],Activity,MDA-MB-436 [1],Dde
same,Activity,MDA-MB-231 [2],Dde
same,inhibition in vivo at 100 mg/kg,MDA-MB-231 [3],57.8%
O=C(COc1ccc2c(c1)CCCN2C(=O)CCl)NCCCCCCCCCC(=O)N1CCN(C(=O)c2cc(Cc3n[nH]c(=O)c4ccccc34)ccc2F)CC1,IC50,MDA-MB-436 [4],26 nM
same,IC50,CAPAN-1,61 nM
same,IC50,MDA-MB-468 [5],690 nM
same,IC50,MDA-MB-231 [6],530 nM
same,Activity,[7],Active
same,DC50,[8],2000 nM
same,Activity,[9],> 92%
same,Activity,[10],Active
same,Activity,[11],Active
same,IC50,[12],2.74 nM
same,IC50,[13],0.32 nM
same,inhibition,HeLa,Active
same,inhibition,HepG2,Active
same,inhibition,SK-OV-3,Active
same,inhibition,NCI-H2228,Active
same,inhibition,NCI-H3122,Active
same,inhibition,SW-620,Active
same,inhibition,MV4-11,Active
same,Activity,[14],Active
same,inhibition,MDA-MB-231 [15],Dde
same,Activity,L02,Non-Toxic
same,Activity,MDA-MB-436 [1],Dde
same,Activity,MDA-MB-231 [2],Dde
same,Activity,MDA-MB-231 [16],20%
same,inhibition in vivo at 100 mg/kg,MDA-MB-231 [3],63.5%
same,inhibition in vivo at 12.5 mg/kg,MDA-MB-231 [17],82.9%
same,inhibition in vivo at 25 mg/kg,MDA-MB-231 [18],98.3%
same,Activity,[19],Non-Toxic
same,Activity,[20],Non-Toxic
same,Activity,[21],Non-Toxic
same,Activity,[22],Non-Toxic
same,Activity,[23],Non-Toxic
same,Activity,[24],Non-Toxic
same,Activity,MDA-MB-231 [25],Active
same,Activity,[26],Non-Toxic
same,Activity,[27],Non-Toxic
same,Activity,[28],Non-Toxic
same,Activity,[29],Non-Toxic
same,Activity,[30],Non-Toxic
same,Ratio IC50,MDA-MB-468 [31],6
same,Ratio IC50,MDA-MB-231 [32],6
